Results taken from patent US20190029252A1, “Use of Herbicide-tolerant Protein” (BEIJING DABEINONG TECHNOLOGY GROUP CO., LTD., priority 2016, published 2019).

Assays:
Assay in all cases: Tribenuron-methyl tolerance of maize plants, damage degree after spraying
Type in all cases: in vivo
[1] = tested on: Zm cytoplasmic ALT-3-02 maize plants; details: 72 g ai/ha (4-fold field concentration)
Description: (§1) The damage degree caused by the herbicide was measured for each plant according to the plant growth status 3 days after spraying (3 DAT), 7 days after spraying (7 DAT), 14 days after spraying (14 DAT) and 21 days after spraying (21 DAT), respectively: considering a growth status equivalent to that of the untreated plants as having a damage degree of 0%; considering conditions of leaves being partially chlorotic and yellow but substantially not affecting the plant normal growth as having a damage degree of 50%; and considering the whole plant being purple and dying as having a damage degree of 100%. There were 2 strains in Zm cytoplasmic ALT-1-02 maize plants in total (S13 and S14), 2 strains in Zm chloroplastic ALT-1-02 maize plants in total (S15 and S16), 2 strains in Zm cytoplasmic ALT-2-02 maize plants in total (S17 and S18), 2 strains in Zm chloroplastic ALT-2-02 maize plants in total (S19 and S20), 2 strains in Zm cytoplasmic ALT-3-02 maize plants in total (S21 and S22), 2 strains in Zm chloroplastic ALT-3-02 maize plants in total (S23 and S24), and 1 strain in wild-type maize plants (CK2) in total; and 10-15 plants were selected from each strain and tested.

[2] = tested on: Zm chloroplastic ALT-1-02 maize plants; details: 72 g ai/ha (4-fold field concentration)
Description: as §1

[3] = tested on: Zm chloroplastic ALT-3-02 maize plants; details: 72 g ai/ha (4-fold field concentration)
Description: as §1

[4] = tested on: Zm cytoplasmic ALT-2-02 maize plants; details: 72 g ai/ha (4-fold field concentration)
Description: as §1

[5] = tested on: wild-type maize plants (CK2)
Description: as §1

[6] = maize strain S21 (Zm cytoplasmic ALT-3-02)
[7] = maize strain S22 (Zm cytoplasmic ALT-3-02)
[8] = maize strain S15 (Zm chloroplastic ALT-1-02)
[9] = maize strain S16 (Zm chloroplastic ALT-1-02)
[10] = maize strain S23 (Zm chloroplastic ALT-3-02)
[11] = maize strain S24 (Zm chloroplastic ALT-3-02)
[12] = maize strain S17 (Zm cytoplasmic ALT-2-02)
[13] = maize strain S18 (Zm cytoplasmic ALT-2-02)
[14] = maize strain CK2 (wild-type), 72 g ai/ha (4-fold field concentration)

COC(=O)c1ccccc1S(=O)(=O)NC(=O)N(C)c1nc(C)nc(OC)n1 [tribenuron-methyl, methyl 2-[N-(4-methoxy-6-methyl-1,3,5-triazin-2-yl)-N-methylaminoformamidosulfonyl]benzoate]
100%: Average damage % 14DAT [5, 14] | Average damage % 21DAT [5, 14]
not tolerant: herbicide tolerance (in words) ([5]; wild-type maize plants, 72 g ai/ha)
6%: Average damage % 3DAT [4, 12]
86%: Average damage % 7DAT [5, 14]
0%: Average damage % 7DAT [1, 6] | Average damage % 14DAT [1, 6] | Average damage % 21DAT [1, 6] | Average damage % 7DAT [1, 7] | Average damage % 14DAT [1, 7] | Average damage % 21DAT [1, 7] | Average damage % 3DAT [2, 8] | Average damage % 7DAT [2, 8] | Average damage % 14DAT [2, 8] | Average damage % 21DAT [2, 8] | Average damage % 3DAT [2, 9] | Average damage % 7DAT [2, 9] | Average damage % 14DAT [2, 9] | Average damage % 21DAT [2, 9] | Average damage % 3DAT [3, 10] | Average damage % 7DAT [3, 10] | Average damage % 14DAT [3, 10] | Average damage % 21DAT [3, 10] | Average damage % 3DAT [3, 11] | Average damage % 7DAT [3, 11] | Average damage % 14DAT [3, 11] | Average damage % 21DAT [3, 11] | Average damage % 7DAT [4, 12] | Average damage % 14DAT [4, 12] | Average damage % 21DAT [4, 12] | Average damage % 7DAT [4, 13] | Average damage % 14DAT [4, 13] | Average damage % 21DAT [4, 13]
5%: Average damage % 3DAT [1, 7] | Average damage % 3DAT [4, 13]
3%: Average damage % 3DAT [1, 6]
